# Measurements as given in patent US20250281467A1, “MODULATORS OF INTRACELLULAR CHLORIDE CONCENTRATION FOR USE IN THE TREATMENT OF COGNITIVE DECLINE” (FONDAZIONE ISTITUTO ITALIANO DI TECNOLOGIA, priority 2022, published 2025).
# Tested on: mice C57BL/6J aged >24 months
# Assay: open field test after diazepam in elderly and young mice
# Type: in vivo
# Conditions: elderly mice (>24 months), diazepam 2 mg/kg, compared to elderly mice treated with vehicle or young mice treated with diazepam
# Description: FIG. 2 illustrates the evaluation of the effect of benzodiazepines in elderly mice which is indicative of a potentiated GABAergic transmission. a) Quantification of the immobility time during the open field test of mice treated with vehicle (young, n=7, elderly, n=6) or diazepam (young, n=7, elderly, n=7) (two-way ANOVA, Tukey post hoc test, *** P<0.001). b) Quantification of the distance travelled during the open field test by mice treated with vehicle (young, n=7, elderly, n=6) or diazepam (young, n=7, elderly, n=7) (two-way ANOVA, Tukey post hoc test, ** P<0.01, *** P<0.001).
# In fact, benzodiazepines are positive allosteric modulators of GABAAR. Benzodiazepines are commonly used as anxiolytic drugs, but can produce anxiogenic or highly sedative effects depending on the polarity of GABAergic transmission. To test the reaction of elderly mice to benzodiazepines, mice C57BL/6J aged >24 months and 2-month old controls C57BL/6J were treated with diazepam (2 mg/kg in saline solution) or vehicle (2% DMSO in saline solution). The open field test was then carried out to evaluate locomotor activity and the level of anxiety of the mice tested. […] This is indicative of an over-sedation reaction of the diazepam in the elderly mice, which may reflect the presence of hyper-inhibitory GABAergic transmission. This evidence is in accordance with the up-regulation of KCC2 (FIG. 1b).
Structure (SMILES),distance travelled during the open field test,immobility time during the open field test
CN1C(=O)CN=C(c2ccccc2)c2cc(Cl)ccc21 [diazepam],significantly lower,significantly higher

# Tested on: elderly mice
# Assay: novel object recognition (NOR) test in elderly mice
# Type: in vivo
# Conditions: 1 mg/kg i.p., versus vehicle
# Description: FIG. 3 illustrates the evaluation of the efficacy of compound 32 (KCC2 inhibitor) to restore impaired memory in elderly mice. a) Quantification of the discrimination index of the NOR test in young (n=13) and elderly (n=10) mice (two tailed t-test, ** P<0.01). b) Quantification of the discrimination index of the NOR test in mice treated with vehicle (young, n=12, elderly, n=9) or compound 32 (young, n=10, elderly, n=6) (two-way ANOVA, Tukey post hoc test, ** P<0.01, ** P<0.001).
# To evaluate memory capacity in the elderly mice, the novel object recognition (NOR) test was conducted. This test evaluates the long-term object recognition memory by measuring the capacity of the mice to recognize a novel object compared to familiar objects. […] Subsequently, to test the ability of the non-selective KCC2 inhibitor, Compound 32, to restore poor memory, the NOR test was conducted in the presence of the drug. The mice were treated with compound 32 (1 mg/kg i.p.) or with the vehicle.
row,Structure (SMILES),object recognition memory (discrimination index of the NOR test)
1,CC(=O)N1CCCC1(Cc1ccc(S(C)(=O)=O)cc1)C(=O)OCc1ccccc1 (stereo not shown) [Compound 32],significantly restored

# Target: T1, KCC2 (Homo sapiens, UniProt Q9H2X9)
# T1 sequence (Q9H2X9 1-1139): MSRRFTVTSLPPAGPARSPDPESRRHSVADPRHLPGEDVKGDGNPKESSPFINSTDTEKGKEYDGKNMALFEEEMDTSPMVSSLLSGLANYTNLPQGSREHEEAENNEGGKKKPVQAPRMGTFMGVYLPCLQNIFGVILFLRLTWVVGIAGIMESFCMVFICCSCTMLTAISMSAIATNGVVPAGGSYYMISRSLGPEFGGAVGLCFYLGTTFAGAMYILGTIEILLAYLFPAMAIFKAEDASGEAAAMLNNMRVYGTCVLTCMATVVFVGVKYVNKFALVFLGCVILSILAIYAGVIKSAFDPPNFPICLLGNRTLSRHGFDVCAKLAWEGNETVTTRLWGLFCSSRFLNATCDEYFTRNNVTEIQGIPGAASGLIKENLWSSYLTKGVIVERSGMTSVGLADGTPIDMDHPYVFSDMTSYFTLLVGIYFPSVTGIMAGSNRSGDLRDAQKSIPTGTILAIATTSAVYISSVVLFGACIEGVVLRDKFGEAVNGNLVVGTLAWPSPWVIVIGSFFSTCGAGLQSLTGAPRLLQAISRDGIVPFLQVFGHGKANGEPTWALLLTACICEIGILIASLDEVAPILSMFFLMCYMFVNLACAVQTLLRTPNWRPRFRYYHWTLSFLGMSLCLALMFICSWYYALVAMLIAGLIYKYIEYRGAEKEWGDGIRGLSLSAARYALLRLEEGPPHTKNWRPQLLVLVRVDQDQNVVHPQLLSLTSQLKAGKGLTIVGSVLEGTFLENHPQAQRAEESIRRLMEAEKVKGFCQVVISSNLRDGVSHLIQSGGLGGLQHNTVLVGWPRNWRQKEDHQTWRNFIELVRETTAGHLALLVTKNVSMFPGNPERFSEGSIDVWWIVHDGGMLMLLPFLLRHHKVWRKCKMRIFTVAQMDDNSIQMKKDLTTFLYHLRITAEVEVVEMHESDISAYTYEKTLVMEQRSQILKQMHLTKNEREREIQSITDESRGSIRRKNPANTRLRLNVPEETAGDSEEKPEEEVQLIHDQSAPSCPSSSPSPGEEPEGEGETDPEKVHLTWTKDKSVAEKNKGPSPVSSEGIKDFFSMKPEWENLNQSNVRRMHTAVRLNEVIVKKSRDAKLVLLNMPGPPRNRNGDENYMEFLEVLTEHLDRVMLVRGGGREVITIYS
# Assay: inhibitory activity measured in vitro on KCC2
# Type: biochemical
# Conditions: IC50, in vitro on KCC2
row,Structure (SMILES),IC50 [nM]
1,CC(=O)N1CCCC1(CC1CCCCC1)C(=O)OCc1ccccc1 (stereo not shown) [Compound 24],4000

# Same assay, conditions: in vitro on KCC2; read-out: IC50
row,Structure (SMILES),IC50 [nM]
1,CC(=O)N1CCCC1(Cc1ccccc1)C(=O)OCc1ccccc1 (stereo not shown) [Compound 21],790
2,CC(=O)N1CCCC1(CCc1ccccc1)C(=O)OCc1ccccc1 (stereo not shown) [Compound 22],8000
3,CCC1(C(=O)OCc2ccccc2)CCCN1C(C)=O (stereo not shown) [Compound 23],2300
4,CC(=O)N1CCCC1(Cc1ccncc1)C(=O)OCc1ccccc1 (stereo not shown) [Compound 25],2000
5,CC(=O)N1CCCC1(Cc1ccsc1)C(=O)OCc1ccccc1 (stereo not shown) [Compound 26],790
6,CC(=O)N1CCCC1(Cc1ccc(C)cc1)C(=O)OCc1ccccc1 (stereo not shown) [Compound 27],790
7,COc1ccc(CC2(C(=O)OCc3ccccc3)CCCN2C(C)=O)cc1 (stereo not shown) [Compound 28],400
8,CC(=O)N1CCCC1(Cc1ccc(C(F)(F)F)cc1)C(=O)OCc1ccccc1 (stereo not shown) [Compound 29],630
9,CC(=O)N1CCCC1(Cc1ccc(F)cc1)C(=O)OCc1ccccc1 (stereo not shown) [Compound 30],200
10,CC(=O)N1CCCC1(Cc1ccc(Cl)cc1)C(=O)OCc1ccccc1 (stereo not shown) [Compound 31],320
11,CC(=O)N1CCCC1(Cc1ccc(S(C)(=O)=O)cc1)C(=O)OCc1ccccc1 (stereo not shown) [Compound 32],1000
12,CC(=O)N1CCCC1(Cc1ccc(C#N)cc1)C(=O)OCc1ccccc1 (stereo not shown) [Compound 33],160
13,CC(=O)N1CCCC1(Cc1cccc(C#N)c1)C(=O)OCc1ccccc1 (stereo not shown) [Compound 34],320
14,CC(=O)N1CCCC1(Cc1ccccc1C#N)C(=O)OCc1ccccc1 (stereo not shown) [Compound 35],5000
15,CC(=O)N1CCCC1(Cc1cccc(S(C)(=O)=O)c1)C(=O)OCc1ccccc1 (stereo not shown) [Compound 36],250
16,CC(=O)N1CCCC1(Cc1cccc(C(F)(F)F)c1)C(=O)OCc1ccccc1 (stereo not shown) [Compound 37],80
17,CC(=O)N1CCCC1(Cc1ccc(F)c(C(F)(F)F)c1)C(=O)OCc1ccccc1 (stereo not shown) [Compound 38],60
18,COc1ccc(CC2(C(=O)OCc3ccccc3)CCCN2C(C)=O)cc1C(F)(F)F (stereo not shown) [Compound 39],50
19,CC(=O)N1CCCC1(Cc1ccc(F)cc1C(F)(F)F)C(=O)OCc1ccccc1 (stereo not shown) [Compound 40],4000
20,CC(=O)N1CCCC1(Cc1ccccc1)C(=O)NCc1ccccc1 (stereo not shown) [Compound 41],100000
21,CC(=O)N1CCCC1(Cc1ccccc1)C(=O)N(C)Cc1ccccc1 (stereo not shown) [Compound 42],32000
22,CC(=O)N1CCCC1(Cc1ccccc1)C(=O)O (stereo not shown) [Compound 43],> 100000
23,COC(=O)C1(Cc2ccccc2)CCCN1C(C)=O (stereo not shown) [Compound 44],> 100000
24,CC(=O)N1CCCC1(Cc1ccccc1)C(=O)OC(C)c1ccccc1 (stereo not shown) [Compound 45],4000

row,Structure (SMILES),IC50 [nM]
1,CC(=O)N1CCCC1(Cc1ccccc1)C(=O)OCCc1ccccc1 (stereo not shown) [Compound 46],10000
2,CC(=O)N1CCCC1(Cc1ccccc1)C(=O)OCC1CCCCC1 (stereo not shown) [Compound 47],63000
3,CC(=O)N1CCCC1(Cc1ccccc1)C(=O)OCc1ccncc1 (stereo not shown) [Compound 48],> 100000
4,CC(=O)N1CCCC1(Cc1ccccc1)C(=O)OCc1ccccc1Cl (stereo not shown) [Compound 49],6000
5,CC(=O)N1CCCC1(Cc1ccccc1)C(=O)OCc1cccc(Cl)c1 (stereo not shown) [Compound 50],2500
6,CC(=O)N1CCCC1(Cc1ccccc1)C(=O)OCc1ccc(Cl)cc1 (stereo not shown) [Compound 51],1300
7,CC(=O)N1CCCC1(Cc1ccccc1)C(=O)OCc1ccc(C)cc1 (stereo not shown) [Compound 52],790
8,CC(=O)N1CCCC1(Cc1ccccc1)C(=O)OCc1ccc(C(F)(F)F)cc1 (stereo not shown) [Compound 53],5000
9,CC(=O)N1CCCC1(Cc1ccccc1)C(=O)OCc1ccc(S(C)(=O)=O)cc1 (stereo not shown) [Compound 54],> 100000
10,O=C(OCc1ccccc1)C1(Cc2ccccc2)CCCN1 (stereo not shown) [Compound 55],> 100000
11,CCN1CCCC1(Cc1ccccc1)C(=O)OCc1ccccc1 (stereo not shown) [Compound 56],> 100000
12,CS(=O)(=O)N1CCCC1(Cc1ccccc1)C(=O)OCc1ccccc1 (stereo not shown) [Compound 57],1600
13,COC(=O)N1CCCC1(Cc1ccccc1)C(=O)OCc1ccccc1 (stereo not shown) [Compound 58],400
14,CCNC(=O)N1CCCC1(Cc1ccccc1)C(=O)OCc1ccccc1 (stereo not shown) [Compound 59],2000
15,CCC(=O)N1CCCC1(Cc1ccccc1)C(=O)OCc1ccccc1 (stereo not shown) [Compound 60],1200
16,O=C(C1CC1)N1CCCC1(Cc1ccccc1)C(=O)OCc1ccccc1 (stereo not shown) [Compound 61],320
17,O=C(c1ccccc1)N1CCCC1(Cc1ccccc1)C(=O)OCc1ccccc1 (stereo not shown) [Compound 62],4000
18,CC(=O)N1CCCC1(Cc1ccccc1)C(=O)CCc1ccccc1 (stereo not shown) [Compound 63],300
19,CC(=O)N1CCCC1(Cc1ccc(F)cc1)C(=O)CCc1ccc(F)cc1 (stereo not shown) [Compound 64],200
20,CC(=O)N1c2ccccc2CC1(Cc1ccccc1)C(=O)OCc1ccccc1 (stereo not shown) [Compound 65],200
21,CC(=O)N1CCCC1(Cc1ccccc1)C(=O)OCc1ccccc1 (stereo not shown) [Compound 66],20000
22,CC(=O)N1CCCC1(Cc1ccccc1)C1=N[C@H](c2ccccc2)CO1 (stereo partly shown) [Compound 67],1300
23,CC(=O)N1CCCC1(Cc1ccccc1)c1nc(-c2ccccc2)co1 (stereo not shown) [Compound 68],12600
24,O=C1CCCC2CCC(Cc3ccccc3)(C(=O)OCc3ccccc3)N12 (stereo not shown) [Compound 69],1000
